Test results reported in article PMC9172283 (Antiviral Research, 2022).

How the values were obtained:
[1] = biological target: SARS-CoV-2 M^pro (Severe acute respiratory syndrome coronavirus 2, UniProt P0DTD1); experiment: FRET-based SARS-CoV-2 M^pro activity assay in vitro; assay type: biochemical; conditions: for Fold increase of inhibitory potency against M^pro compared to parental hit 7: compared to hit 7
[2] = tested on: SARS-CoV-2; experiment: Plaque reduction assay; assay type: cell-based, SARS-CoV-2/NL/2020 strain; conditions: ratio between CC50 and EC50; SARS-CoV-2, Vero E6 cells
[3] = MTT cell viability assay in Vero E6 cells; assay type: cell-based; conditions: African green monkey
[4] = tested on: SARS-CoV-2; experiment: Virus yield reduction assay of SARS-CoV-2 in Calu-3 cells; assay type: cell-based; conditions: MOI 0.01, 36 h p.i., titration on Vero E6
[5] = tested on: SARS-CoV-2; experiment: Time-of-addition experiments with SARS-CoV-2 in Vero E6 cells; assay type: cell-based; conditions: 50 μM, added at +4 h p.i.
[6] = tested on: SARS-CoV-2 M^pro (NanoLuc-nsp4-M^pro fusion protein); assay type: cell-based

| SMILES | IC50 [1] | Fold increase of inhibitory potency against M^pro compared to parental hit 7 [1] | SI, Selectivity Index [2] | CC50 at 72 h [3] | SARS-CoV-2 titers in supernatants of infected and treated Calu-3 cells [4] | Time-of-addition: effect of addition at 4 h p.i. [5] | Inhibition of proteolytic cleavage of NanoLuc-nsp4-M^pro in cells [6] |
| --- | --- | --- | --- | --- | --- | --- | --- |
| CC(C)[C@H](NC(=O)c1ccccc1NC(=O)c1ccccc1)C(=O)N[C@H](CO)C(C)C [Compound 36, 2-Benzamido-N-((S)-1-(((S)-1-hydroxy-3-methylbutan-2-yl)amino)-3-methyl-1-oxobutan-2-yl)benzamide] | 42.9 ± 8.3 µM | > 2 fold | >192 | > 250 µM | confirmed active | still exerted an antiviral effect | dose-dependent inhibition of the proteolytic cleavage |
| CC(C)[C@H](NC(=O)c1ccccc1NC(=O)c1ccccn1)C(=O)N[C@H](CO)C(C)C [Compound 37, N-(2-(((S)-1-(((S)-1-Hydroxy-3-methylbutan-2-yl)amino)-3-methyl-1-oxobutan-2-yl)carbamoyl)phenyl)picolinamide] | 41.3 ± 7.6 µM | > 2 fold | >119 | > 250 µM | confirmed active | still exerted an antiviral effect | dose-dependent inhibition of the proteolytic cleavage |
